From ChEMBL document CHEMBL1201862, “PubChem BioAssay data set” (2004)
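Cells were grown in 96-well plates and exposed to each compound for 48 hours at five concentrations; endpoints were interpolated linearly between bracketing concentrations, or set to the highest concentration if not reached. GI50 is the concentration that inhibits growth by half.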 Active and inactive are the calls of the source. Rule as the data show it: active = GI50 up to about 1.1 µM and inactive = higher.

How the values were obtained:
Assay in all cases: NCI-60 cell line screen, 48 h
[1] = system: XF498
[2] = system: HOP-18
[3] = system: DMS-114
[4] = system: KM-20L2
[5] = system: M19-MEL
[6] = system: DMS-273
[7] = system: SNB-78
[8] = system: DLD-1
[9] = system: RXF 631

Structure (SMILES)	GI50 [1]	GI50 [2]	GI50 [3]	GI50 [4]	GI50 [5]	GI50 [6]	GI50 [7]	GI50 [8]	GI50 [9]
O=[N+]([O-])c1ccc(N=P(c2ccccc2)(c2ccccc2)c2ccccc2)n2nnnc12	32.7 µM (inactive)	> 100 µM (inactive)	72.3 µM (inactive)	> 100 µM (inactive)	82 µM (inactive)	> 100 µM (inactive)	–	–	–
C=C1C(=O)OC2C/C(C)=C/CC/C(C)=C/CCC3(COC(C)=O)OC3CC12 (stereo unspecified)	7.11 µM (inactive)	11.2 µM (inactive)	4.09 µM (inactive)	6.93 µM (inactive)	13.1 µM (inactive)	3.87 µM (inactive)	7.71 µM (inactive)	3.81 µM (inactive)	–
Cc1ccc(S(=O)(=O)NC(=O)C#CCOC2CCCCO2)cc1 (stereo unspecified)	> 100 µM (inactive)	> 100 µM (inactive)	> 100 µM (inactive)	> 100 µM (inactive)	> 100 µM (inactive)	> 100 µM (inactive)	–	> 100 µM (inactive)	> 100 µM (inactive)
CC1=C(C(=O)NCc2ccccc2)C(/C=C/c2ccccc2)C(C(=O)NCc2ccccc2)=C(C)N1	> 100 µM (inactive)	> 100 µM (inactive)	> 100 µM (inactive)	> 100 µM (inactive)	> 100 µM (inactive)	> 100 µM (inactive)	> 100 µM (inactive)	> 100 µM (inactive)	–
C#CC(C)(C)Oc1cc(O)c2c(=O)c3ccccc3n(C)c2c1	> 100 µM (inactive)	> 100 µM (inactive)	> 100 µM (inactive)	> 100 µM (inactive)	–	23.1 µM (inactive)	> 100 µM (inactive)	–	> 100 µM (inactive)
COc1cccc2c1C(=O)c1c(O)c3c(c(O)c1C2=O)C[C@@](O)(C(=O)CO)CC3OC1CC(O)C(O)C(C)O1 (stereo partly specified)	0.102 µM (active)	0.277 µM (active)	0.188 µM (active)	0.592 µM (active)	0.218 µM (active)	0.033 µM (active)	1.28 µM (inactive)	0.385 µM (active)	0.188 µM (active)
COc1c(I)c(OC)c2c(c1I)O[C@@H]1OCC[C@H]21	30.3 µM (inactive)	24.3 µM (inactive)	26.5 µM (inactive)	65.3 µM (inactive)	23.8 µM (inactive)	23.1 µM (inactive)	57.9 µM (inactive)	> 100 µM (inactive)	29.9 µM (inactive)
COc1cccc2c1C(=O)c1c(O)c3c(c(O)c1C2=O)C[C@@](O)(/C(C)=N\O)C[C@@H]3OC1CC(N)C(O)C(C)O1 (stereo partly specified)	0.21 µM (active)	2.18 µM (inactive)	0.371 µM (active)	3 µM (inactive)	0.743 µM (active)	0.454 µM (active)	1.28 µM (inactive)	1.95 µM (inactive)	2.24 µM (inactive)
COc1cc(Nc2cnc3cc(C(F)(F)F)ccc3n2)cc(OC)c1OC	> 100 µM (inactive)	> 100 µM (inactive)	–	> 100 µM (inactive)	> 100 µM (inactive)	> 100 µM (inactive)	> 100 µM (inactive)	> 100 µM (inactive)	> 100 µM (inactive)
C=C1CC2OC(=O)C(=C)C2C(O)C2C(=C)CCC12 (stereo unspecified)	–	15.9 µM (inactive)	4.55 µM (inactive)	–	5.19 µM (inactive)	8.2 µM (inactive)	6.56 µM (inactive)	10.1 µM (inactive)	–
O=C(Nc1ccccc1C(=O)NC(=O)c1ccccc1NC(=O)c1ccccc1)c1ccccc1	1.69 µM (inactive)	4.49 µM (inactive)	2.17 µM (inactive)	3.15 µM (inactive)	–	2.29 µM (inactive)	–	12.5 µM (inactive)	–
COC(=O)C(=C/c1ccc(OC)cc1)/C(C(=O)O)=C(/C)c1ccccc1	> 100 µM (inactive)	> 100 µM (inactive)	–	> 100 µM (inactive)	> 100 µM (inactive)	> 100 µM (inactive)	> 100 µM (inactive)	> 100 µM (inactive)	–
O=C(c1ccccc1)c1nc2ccc(Cl)cc2c2c1Cc1ccccc1-2	> 100 µM (inactive)	> 100 µM (inactive)	> 100 µM (inactive)	> 100 µM (inactive)	> 100 µM (inactive)	> 100 µM (inactive)	–	> 100 µM (inactive)	–
Cc1cc(Cl)ccc1NC(=O)CCCC(=O)C1C/C(=N/O)CC/C1=N\O (stereo unspecified)	> 100 µM (inactive)	> 100 µM (inactive)	> 100 µM (inactive)	> 100 µM (inactive)	> 100 µM (inactive)	> 100 µM (inactive)	> 100 µM (inactive)	> 100 µM (inactive)	> 100 µM (inactive)
Cc1ccccc1-n1c(CCl)nc2ccc(Br)cc2c1=O	–	22.9 µM (inactive)	7.46 µM (inactive)	17.8 µM (inactive)	6.15 µM (inactive)	26 µM (inactive)	18.2 µM (inactive)	3.82 µM (inactive)	16.9 µM (inactive)
COc1ccc2nc3cc(Cl)ccc3c(NCCC[N+](C)(C)CCCCCCCCCCCCCCCC[N+](C)(C)CCCNc3c4ccc(Cl)cc4nc4ccc(OC)cc34)c2c1	–	2.42 µM (inactive)	1.89 µM (inactive)	3.3 µM (inactive)	1.97 µM (inactive)	1.77 µM (inactive)	–	3.11 µM (inactive)	7.14 µM (inactive)
CCCCOC(=O)NC(=O)c1cn(CCCOC(=O)CCCCCCCCC(=O)OCCCn2cc(C(=O)NC(=O)OCCCC)c(=O)[nH]c2=O)c(=O)[nH]c1=O	> 100 µM (inactive)	24.9 µM (inactive)	> 100 µM (inactive)	> 100 µM (inactive)	> 100 µM (inactive)	–	–	> 100 µM (inactive)	98.6 µM (inactive)
Cc1cccc(C)c1NC(=O)C(=O)Nn1c(NN)nc2ccccc2c1=O	–	> 100 µM (inactive)	> 100 µM (inactive)	> 100 µM (inactive)	> 100 µM (inactive)	> 100 µM (inactive)	> 100 µM (inactive)	–	> 100 µM (inactive)
CC1(C)CC(Nc2ccc(Nc3ccccc3)cc2)CC(C)(C)N1	22.5 µM (inactive)	> 100 µM (inactive)	21.2 µM (inactive)	26.1 µM (inactive)	35.2 µM (inactive)	41.7 µM (inactive)	66.2 µM (inactive)	70.5 µM (inactive)	18.6 µM (inactive)
COc1ccccc1NC(=O)NS(=O)(=O)c1ccccc1	–	48.2 µM (inactive)	> 100 µM (inactive)	> 100 µM (inactive)	> 100 µM (inactive)	> 100 µM (inactive)	> 100 µM (inactive)	> 100 µM (inactive)	–
COc1ccc2c(c1)[n+]([O-])c(/C(C)=N/NC(=O)c1ccccc1O)c(C)[n+]2[O-]	81.5 µM (inactive)	> 100 µM (inactive)	> 100 µM (inactive)	> 100 µM (inactive)	> 100 µM (inactive)	–	> 100 µM (inactive)	> 100 µM (inactive)	> 100 µM (inactive)
CCOC(=O)C1C(c2ccc(Cl)cc2Cl)NC(c2ccc(C)cc2)C(C(=O)OC)S1(=O)=O (stereo unspecified)	3.33 µM (inactive)	–	–	–	53.1 µM (inactive)	85.5 µM (inactive)	> 100 µM (inactive)	> 100 µM (inactive)	–
O=C1C2C3C=C4c5ccccc5N(c5ccccc5)C4([C@@H]2C(=O)N1c1ccc(F)cc1)[C@H]1C(=O)N(c2ccc(F)cc2)C(=O)[C@@H]31 (stereo partly specified)	> 100 µM (inactive)	> 100 µM (inactive)	> 100 µM (inactive)	–	> 100 µM (inactive)	–	82.2 µM (inactive)	> 100 µM (inactive)	–
